Measurements: patent US4782058A, “1,3,4,6,7,11b-Hexahydro-6-phenyl-2H-pyrazino-(2,1-a)isoquinolines, for anti-histamine or anti-depression treatment” (Pennwalt Corporation, priority 1987, dated 1988)
Counter-ions that a name gives are not always drawn.

Columns and labels:
[1] = test system: tetrabenazine-induced ptosis; experiment: inhibition of tetrabenazine-induced ptosis in mice; type: in vivo; conditions: Mus musculus, po; male CF-1 mice, orally administered 15 min before i.v. tetrabenazine; ptosis rated 30-150 min; read-out: lowest active dose (LAD)
Procedure: A particularly useful compound with respect to antidepressant activity is the title compound of Example 1 (i.e., the cis-diastereoisomeric form of the compound of formula I in which R1 is methyl, R2 is methoxy, and R3 is hydrogen). That compound was tested for antidepressant activity by measuring its ability to inhibit tetrabenazine-induced ptosis in mice.
Male CF-1 mice weighing 19-32 grams were housed for a minimum of 5 days under a 12 hour light/dark (6 am/6 pm) schedule at 70°-74° F. and relative humidity of 30-50%. Food and water were available ad libitum until the time of administration of test compounds. Mice in groups of ten were orally administered (via gastric intubation) either the control solution (distilled water, 10 ml/kg) or the test compound. The test compound was either dissolved in distilled water or suspended in distilled water containing a drop of polyoxyethylene 20 sorbitan monooleate, sold under the trademark, Tween 80. After fifteen minutes, a dose of 10 ml/kg of a solution of tetrabenazine (as its methane sulfonate salt) in distilled water (4 mg/ml) was administered by intravenous injection. The degree of palpebral closure (ptosis) was determined 30, 60, 90, 120, and 150 minutes after administration of the tetrabenazine solution. […]

[2] = molecular target: T1, histamine H1 -receptors (Rattus norvegicus, UniProt P31390); experiment: inhibition of binding of 3H-pyrilamine to homogenated rat cerebral tissue; conditions: 3H-pyrilamine binding, read-out: IC50 (50% inhibitory concentration)
T1 construct: homogenated rat cerebral tissue; from tissue; host or cells: rat cerebral tissue, homogenate
T1 sequence (P31390 whole entry): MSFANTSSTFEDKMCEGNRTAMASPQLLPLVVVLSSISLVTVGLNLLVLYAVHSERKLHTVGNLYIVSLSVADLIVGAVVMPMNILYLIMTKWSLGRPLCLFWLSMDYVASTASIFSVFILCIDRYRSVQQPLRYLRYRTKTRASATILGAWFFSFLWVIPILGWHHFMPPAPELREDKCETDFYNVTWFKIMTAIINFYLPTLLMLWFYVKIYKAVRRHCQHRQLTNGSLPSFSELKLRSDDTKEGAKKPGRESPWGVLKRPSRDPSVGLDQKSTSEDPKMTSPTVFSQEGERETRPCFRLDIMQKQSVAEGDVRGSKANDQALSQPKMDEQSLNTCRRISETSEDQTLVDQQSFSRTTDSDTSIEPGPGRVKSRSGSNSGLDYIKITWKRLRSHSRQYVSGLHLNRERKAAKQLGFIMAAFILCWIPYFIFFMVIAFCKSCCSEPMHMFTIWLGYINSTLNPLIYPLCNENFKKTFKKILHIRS
Procedure: That compound was assayed for anti-histamine activity by measuring its ability to inhibit the binding of 3H-pyrilamine to homogenated rat cerebral tissue. (3H-Pyrilamine is a radioligand that is used to characterize histamine H1 -receptors in brain tissue.) Assay conditions were essentially those of V. T. Tran et al, Proc. Nat'l. Acad. Sci. (USA) 75, p. 6290-6294 (1978).

SMILES	minimal effective dose [1] [mg/kg]	IC50 [2] [nM]
COc1ccc2c(c1)C[C@@H](c1ccccc1)N1CCN(C)C[C@@H]21 (relative stereo) [Example 1, cis-1,3,4,6,7,11b-hexahydro-9-methoxy-2-methyl-6-phenyl-2H-pyrazino[2,1-a]isoquinoline dihyrochloride]	20	
CN1CCN2[C@@H](c3ccccc3)Cc3cc(O)ccc3[C@@H]2C1 (relative stereo) [Example 2, cis-1,3,4,6,7,11b-hexahydro-9-hydroxy-2-methyl-6-phenyl-2H-pyrazino[2,1-a]isoquinoline dihydrobromide]		250
